Results reported in article PMC4683533, “Discovery of novel INK4C small-molecule inhibitors to promote human and murine hematopoietic stem cell ex vivo expansion” (Scientific Reports, 2015).
Entries after “also recorded” stand apart in the source; their conditions may differ.

Legend:
[1] = system: c-Kit enriched BM cells (primary hematopoietic cells); assay: apoptosis analysis by Annexin V staining; format: cell-based; conditions: effective concentration (20 μM), 5 days, compared with negative control group
Procedure: First, a cell-proliferation assay was performed on the immortalized myeloblast-like cell line 32D cells to evaluate general cytotoxicity. […] We also evaluated cytotoxicity using primary hematopoietic cells.
Figure 6 Cytotoxicity assessment of top p18SMI compounds. (A) Cell proliferation assay was performed on 32D cells to evaluate general cytotoxicity. The cell survival was determined by the MTT assay. (B) Apoptosis statistics analysis of cultured c-Kit enriched BM cells which were cultured with cytokine plus 20 μM compound 40 or DMSO. Uncultured bone marrow cells were irradiated by UV to serve as positive control. Apoptosis was checked by Annexin V staining on hematopoietic cells. (C,D) Proliferation effect of compound 40 on leukemia cell lines KG-1 and KG-1a. The cell survival was determined with the MTT assay. Data is mean ± SEM for all experiments of two or more and were performed in duplicate or triplicate.
c-Kit enriched BM cells were cultured for 5 days with cytokine combination plus compound 40 or DMSO. […] Apoptosis and cell death were measured by AnnexinV and DAPI staining according to the manufacturer’s instructions in the Annexin V-FITC Apoptosis Detection Kit (BD Biosciences). Apoptosis was measured on an FACS analyzer (LSR Fortessa, BD Biosciences). The data was analyzed using FlowJo software (Treestar, Inc.).

MM.1S = assay: MTT proliferation assay on myeloma cell line; format: cell-based
Excerpt: (§1) With confirmation of compound 40 promoting the expansion of HSCs, we further examined whether it might also increase the risk of malignant diseases. In order to determine the effect of compound 40 on hematological tumorigenesis, proliferation of both leukemia cell lines (KG-1 and KG-1a) and myeloma cell lines (MM.1S and RPMI 8226) was further investigated by a standard MTT assay.
(§2) To evaluate the toxicity of our top compounds, we performed a cell proliferation assay using 32D cells as well as leukemia cell lines and myeloma cell lines. Weihi-3 cells were cultured at 37 °C under 5% CO2 in RPMI 1640 medium supplemented with 10%FBS. After 48 h, the supernatant was collected and filtered. 32D cells were cultured in RPMI 1640 with 10% FBS and 10% supernatant collected from Weihi-3 cells. 8,000 32D cells or leukemia cell line (KG-1 or KG-1a) or myeloma cell line (MM.1S or RPMI 8226) were plated in a 96-well plate in 198 μL culture media per well, and then cultured (37 °C, 5% CO2) overnight. 2 μL of serially diluted compounds dissolved in saline or DMSO were added to each well and incubated (37 °C, 5% CO2) for 72 h. The concentration of DMSO was equal to the one in corresponding compound group. 20 μL of MTT solution was added to each well and then incubated (37 °C, 5% CO2) for 4 h. The percentage of cell survival was determined using the MTT assay, as previously described. The data was analyzed using GraphPad Prism v6.0.
(§3) (1 picture or pasted object on this page, not shown here)

RPMI 8226 = assay: MTT proliferation assay on myeloma cell line; format: cell-based
Excerpt: as §1, §2, §3

[2] = system: LT-repopulating HSCs (CD34-LKS cells); assay: competitive bone marrow transplantation (cBMT) assay; format: in vivo, mouse
Procedure: Figure 3 Treatment of c-Kit-enriched murine BM cells with p18SMI compounds enhances HSC expansion. (A) The average number of total cells, HSPCs (Lin^−Sca1^+) and long term (LT)-HSCs (Lin^-Sca1^+CD48^−CD150^+) were analyzed by flow cytometry. (B) Single CD34^−LKS cell were deposited into each well of a 96-well plate, along with differentiation medium plus different concentrations of p18SMI compounds to show the dose-response effect of p18SMI compounds. (C) CAFC-LDA assay of cells treated with XIE18-6, compound 40 and DMSO to reveal the frequency of primitive HSCs. Above data (A–C) is mean ± SEM for all experiments of two or more and were performed in duplicate or triplicate. (D) Experimental design for transplantation (n = 10). CD34^-LKS cells were sorted into 96-well plates at 50 cells/well and cultured for 3 days with cytokine plus 20 μM of compounds or DMSO. Cells from each well were mixed with 2 × 10^6 freshly isolated bone marrow MNCs and co-transplanted by tail-vein injection into lethally irradiated CD45.2 recipient mice. 16 weeks after transplantation, bone marrow MNCs were stained to determine the engraftment level of donor cells. Bone marrow MNCs were also stained for lineage analysis. Multi-lineage differentiation was examined by flow cytometry. GM, T and B indicate lineages for myeloid, T and B cells, respectively. (E,F) The engraftment levels at 16 weeks after primary transplantation, and multi-lineage differentiation profile. Data is mean ± SEM for all experiments (***p < 0.001, **p < 0.01). TEXT PRINTED IN THE PICTURE: (E) #40: Engrafment%: *** 5.93X | (E) XIE18-6: Engrafment%: ** 3.01X DOUBTS OF THE COPYIST ABOUT THIS PICTURE: Panel E: 5.93X and 3.01X are printed on brackets running from #40 and from XIE18-6 to DMSO. No measure is printed beside them, so the axis label 'Engrafment%' was used as the measure.
The increased frequency and total number of functional LT-HSCs after treatment with p18SMI compounds was further confirmed by competitive bone marrow transplantation (cBMT) assay (Fig. 3D). CD34^-LKS cells were first sorted and cultured w/o p18SMI compound for 3 days. Then the cultured cells were gathered and co-transplanted into lethally irradiated mice with competitor cells. […] Moreover, the engraftment of the group treated with compound 40 was double of that of the group treated with XIE18–6.

O=C([O-])c1ccc(S(=O)(=O)NC2CCCCC2)cc1.[Na+] [Compound 40, sodium 4-(N-cyclohexylsulfamoyl)benzoate]
cytotoxicity / apoptotic cell death in primary hematopoietic cells (HSCs) [1]: did not show significant cytotoxicity; also recorded: did not increase apoptotic cell death; also recorded: not cytotoxic | enhancement of proliferation (MTT) (MM.1S; 5 μM): did not enhance | effect on myeloma cell line (MM.1S; high concentration (20 μM)): no effect | enhancement of proliferation (MTT) (RPMI 8226; 5 μM): did not enhance | effect on myeloma cell line (RPMI 8226; high concentration (20 μM)): no effect | engraftment relative to the group treated with XIE18–6 ([2]; 16 weeks after transplantation): double | multi-lineage differentiation profile (GM, T, B) compared with the control group ([2]; 16 weeks after transplantation): did not cause predominant growth of any specific lineages | increase in engraftment compared with the DMSO control group ([2]; CD34-LKS cells cultured 3 days with 20 μM compound, co-transplanted with competitor cells into lethally irradiated mice, bone marrow 16 weeks after transplantation): 5.93 fold | increase in engraftment compared with the uncultured group ([2]; cells cultured 3 days with 20 μM compound, 16 weeks after transplantation): 4.34 fold
